From the supplement of paper PMC10307832

Assays:
Test in all cases: relative viability (nuclei count vs DMSO), 5 days (fraction); higher = more cells survive
Imatinib = compound: Cc1ccc(NC(=O)c2ccc(CN3CCN(C)CC3)cc2)cc1Nc1nccc(-c2cccnc2)n1 [Imatinib]
Procedure, shortened: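 Following overnight incubation at 37 °C, lung cancer cell lines in 1536-well plates were pinned with five library-drug doses (not always all listed) in √10 steps on vehicle-anchored plates. The cells then spent 5 days without medium change before a combined fix, permeabilisation and Hoechst stain, 4× imaging and MetaXpress nuclear counts. Viability is the treated-to-vehicle ratio of nuclei, taken as the median across plates. Only plates with control CV below 25% and at least one doubling passed.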

Imatinib + Crizotinib = compound: Cc1ccc(NC(=O)c2ccc(CN3CCN(C)CC3)cc2)cc1Nc1nccc(-c2cccnc2)n1 [Imatinib] + C[C@@H](Oc1cc(-c2cnn(C3CCNCC3)c2)cnc1N)c1c(Cl)ccc(F)c1Cl [Crizotinib] (partner 1 µM)
Procedure, shortened: (§1)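 Relative viability was taken as the ratio of nuclei in treated wells to nuclei in vehicle wells. Lung cancer cell lines in 1536-well plates received compounds by pin tool one day after seeding, either one drug alone or a fixed anchor-drug dose plus five library-drug doses (not always all listed) in √10 steps. Nuclei were counted on 4× images after 5 days of treatment, and values are medians of duplicate plates.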

Imatinib + Bortezomib = compound: Cc1ccc(NC(=O)c2ccc(CN3CCN(C)CC3)cc2)cc1Nc1nccc(-c2cccnc2)n1 [Imatinib] + CC(C)C[C@H](NC(=O)[C@H](Cc1ccccc1)NC(=O)c1cnccn1)B(O)O [Bortezomib] (partner 0.002 µM)
Procedure, shortened: as §1

Imatinib + Alpelisib = compound: Cc1ccc(NC(=O)c2ccc(CN3CCN(C)CC3)cc2)cc1Nc1nccc(-c2cccnc2)n1 [Imatinib] + Cc1nc(NC(=O)N2CCC[C@H]2C(N)=O)sc1-c1ccnc(C(C)(C)C(F)(F)F)c1 [Alpelisib] (partner 2 µM)
Procedure, shortened: as §1

Imatinib + Linsitinib = compound: Cc1ccc(NC(=O)c2ccc(CN3CCN(C)CC3)cc2)cc1Nc1nccc(-c2cccnc2)n1 [Imatinib] + C[C@]1(O)C[C@@H](c2nc(-c3ccc4ccc(-c5ccccc5)nc4c3)c3c(N)nccn32)C1 [Linsitinib] (partner 1 µM)
Procedure, shortened: as §1

Imatinib + Pictilisib = compound: Cc1ccc(NC(=O)c2ccc(CN3CCN(C)CC3)cc2)cc1Nc1nccc(-c2cccnc2)n1 [Imatinib] + CS(=O)(=O)N1CCN(Cc2cc3nc(-c4cccc5[nH]ncc45)nc(N4CCOCC4)c3s2)CC1 [Pictilisib] (partner 1 µM)
Procedure, shortened: as §1

Imatinib + Lapatinib = compound: Cc1ccc(NC(=O)c2ccc(CN3CCN(C)CC3)cc2)cc1Nc1nccc(-c2cccnc2)n1 [Imatinib] + CS(=O)(=O)CCNCc1ccc(-c2ccc3ncnc(Nc4ccc(OCc5cccc(F)c5)c(Cl)c4)c3c2)o1 [Lapatinib] (partner 2 µM)
Procedure, shortened: as §1

Imatinib + Navitoclax = compound: Cc1ccc(NC(=O)c2ccc(CN3CCN(C)CC3)cc2)cc1Nc1nccc(-c2cccnc2)n1 [Imatinib] + CC1(C)CCC(c2ccc(Cl)cc2)=C(CN2CCN(c3ccc(C(=O)NS(=O)(=O)c4ccc(N[C@H](CCN5CCOCC5)CSc5ccccc5)c(S(=O)(=O)C(F)(F)F)c4)cc3)CC2)C1 [Navitoclax] (partner 0.5 µM)
Procedure, shortened: as §1

Imatinib + Foretinib = compound: Cc1ccc(NC(=O)c2ccc(CN3CCN(C)CC3)cc2)cc1Nc1nccc(-c2cccnc2)n1 [Imatinib] + COc1cc2c(Oc3ccc(NC(=O)C4(C(=O)Nc5ccc(F)cc5)CC4)cc3F)ccnc2cc1OCCCN1CCOCC1 [Foretinib] (partner 0.25 µM)
Procedure, shortened: as §1

Imatinib + Olaparib = compound: Cc1ccc(NC(=O)c2ccc(CN3CCN(C)CC3)cc2)cc1Nc1nccc(-c2cccnc2)n1 [Imatinib] + O=C(c1cc(Cc2n[nH]c(=O)c3ccccc23)ccc1F)N1CCN(C(=O)C2CC2)CC1 [Olaparib] (partner 8 µM)
Procedure, shortened: as §1

Imatinib + Decitabine = compound: Cc1ccc(NC(=O)c2ccc(CN3CCN(C)CC3)cc2)cc1Nc1nccc(-c2cccnc2)n1 [Imatinib] + Nc1ncn([C@H]2C[C@H](O)[C@@H](CO)O2)c(=O)n1 [Decitabine] (partner 2 µM)
Procedure, shortened: as §1

Imatinib + Phenformin = compound: Cc1ccc(NC(=O)c2ccc(CN3CCN(C)CC3)cc2)cc1Nc1nccc(-c2cccnc2)n1 [Imatinib] + N=C(N)NC(=N)NCCc1ccccc1 [Phenformin] (partner 250 µM)
Procedure, shortened: as §1

With EBC-1 the relative viability (Imatinib; 0.02 µM) was 1.13, the relative viability (Imatinib; 0.06325 µM) was 0.878 and the relative viability (Imatinib; 0.2 µM) was 1.17. For the same cell line, the relative viability (Imatinib; 0.6325 µM) was 1.02, the relative viability (Imatinib + Crizotinib; first compound 0.02 µM) was 0.185 and the relative viability (Imatinib + Crizotinib; first compound 0.06325 µM) was 0.204. It also gave a relative viability (Imatinib + Crizotinib; first compound 0.2 µM) of 0.19, a relative viability (Imatinib + Crizotinib; first compound 0.6325 µM) of 0.196 and a relative viability (Imatinib + Crizotinib; first compound 2 µM) of 0.208. The relative viability (Imatinib + Bortezomib; first compound 0.02 µM) was 0.556, the relative viability (Imatinib + Bortezomib; first compound 0.06325 µM) was 0.623 and the relative viability (Imatinib + Bortezomib; first compound 0.2 µM) was 0.52. It also gave a relative viability (Imatinib + Bortezomib; first compound 0.6325 µM) of 0.58, a relative viability (Imatinib + Bortezomib; first compound 2 µM) of 0.423 and a relative viability (Imatinib + Alpelisib; first compound 0.02 µM) of 0.763. For the same cell line, the relative viability (Imatinib + Alpelisib; first compound 0.2 µM) was 0.893, the relative viability (Imatinib + Alpelisib; first compound 0.6325 µM) was 0.823 and the relative viability (Imatinib + Alpelisib; first compound 2 µM) was 0.634. The relative viability (Imatinib + Linsitinib; first compound 0.02 µM) was 1.18, the relative viability (Imatinib + Linsitinib; first compound 0.06325 µM) was 0.974 and the relative viability (Imatinib + Linsitinib; first compound 0.2 µM) was 1.07. The relative viability (Imatinib + Linsitinib; first compound 0.6325 µM) was 1.04, the relative viability (Imatinib + Linsitinib; first compound 2 µM) was 0.818 and the relative viability (Imatinib + Pictilisib; first compound 0.02 µM) was 0.425. It also gave a relative viability (Imatinib + Pictilisib; first compound 0.06325 µM) of 0.405, a relative viability (Imatinib + Pictilisib; first compound 0.2 µM) of 0.387 and a relative viability (Imatinib + Pictilisib; first compound 0.6325 µM) of 0.304. It also gave a relative viability (Imatinib + Pictilisib; first compound 2 µM) of 0.334, a relative viability (Imatinib + Lapatinib; first compound 0.02 µM) of 0.182 and a relative viability (Imatinib + Lapatinib; first compound 0.06325 µM) of 0.187. The relative viability (Imatinib + Lapatinib; first compound 0.2 µM) was 0.216, the relative viability (Imatinib + Lapatinib; first compound 0.6325 µM) was 0.195 and the relative viability (Imatinib + Lapatinib; first compound 2 µM) was 0.168. It also gave a relative viability (Imatinib + Navitoclax; first compound 0.02 µM) of 0.398, a relative viability (Imatinib + Navitoclax; first compound 0.06325 µM) of 0.399 and a relative viability (Imatinib + Navitoclax; first compound 0.2 µM) of 0.382. For the same cell line, the relative viability (Imatinib + Navitoclax; first compound 0.6325 µM) was 0.327, the relative viability (Imatinib + Navitoclax; first compound 2 µM) was 0.379 and the relative viability (Imatinib + Foretinib; first compound 0.02 µM) was 0.114. The relative viability (Imatinib + Foretinib; first compound 0.06325 µM) was 0.108, the relative viability (Imatinib + Foretinib; first compound 0.2 µM) was 0.109 and the relative viability (Imatinib + Foretinib; first compound 0.6325 µM) was 0.0904. The relative viability (Imatinib + Foretinib; first compound 2 µM) was 0.0924, the relative viability (Imatinib + Olaparib; first compound 0.02 µM) was 0.776 and the relative viability (Imatinib + Olaparib; first compound 0.06325 µM) was 0.719. It also gave a relative viability (Imatinib + Olaparib; first compound 0.2 µM) of 0.728, a relative viability (Imatinib + Olaparib; first compound 0.6325 µM) of 0.68 and a relative viability (Imatinib + Olaparib; first compound 2 µM) of 0.573.
In the case of A549, the relative viability (Imatinib; 0.02 µM) was 1, the relative viability (Imatinib; 0.06325 µM) was 0.846 and the relative viability (Imatinib; 0.2 µM) was 1.19. For the same cell line, the relative viability (Imatinib; 0.6325 µM) was 0.973, the relative viability (Imatinib; 2 µM) was 0.99 and the relative viability (Imatinib + Alpelisib; first compound 0.02 µM) was 0.793. The relative viability (Imatinib + Alpelisib; first compound 0.06325 µM) was 0.841, the relative viability (Imatinib + Alpelisib; first compound 0.6325 µM) was 0.722 and the relative viability (Imatinib + Alpelisib; first compound 2 µM) was 0.949. The relative viability (Imatinib + Linsitinib; first compound 0.02 µM) was 0.673, the relative viability (Imatinib + Linsitinib; first compound 0.2 µM) was 0.636 and the relative viability (Imatinib + Linsitinib; first compound 0.6325 µM) was 0.699. The relative viability (Imatinib + Linsitinib; first compound 2 µM) was 0.753, the relative viability (Imatinib + Pictilisib; first compound 0.02 µM) was 0.729 and the relative viability (Imatinib + Pictilisib; first compound 0.06325 µM) was 0.703. The relative viability (Imatinib + Pictilisib; first compound 0.2 µM) was 0.545, the relative viability (Imatinib + Pictilisib; first compound 0.6325 µM) was 0.553 and the relative viability (Imatinib + Pictilisib; first compound 2 µM) was 0.466. The relative viability (Imatinib + Lapatinib; first compound 0.02 µM) was 1.09, the relative viability (Imatinib + Lapatinib; first compound 0.06325 µM) was 1.13 and the relative viability (Imatinib + Lapatinib; first compound 0.2 µM) was 1.11. For the same cell line, the relative viability (Imatinib + Lapatinib; first compound 0.6325 µM) was 1.07, the relative viability (Imatinib + Lapatinib; first compound 2 µM) was 0.99 and the relative viability (Imatinib + Navitoclax; first compound 0.02 µM) was 1.31. For the same cell line, the relative viability (Imatinib + Navitoclax; first compound 0.06325 µM) was 1.53, the relative viability (Imatinib + Navitoclax; first compound 0.2 µM) was 1.55 and the relative viability (Imatinib + Navitoclax; first compound 0.6325 µM) was 1.18. For the same cell line, the relative viability (Imatinib + Navitoclax; first compound 2 µM) was 1.17, the relative viability (Imatinib + Decitabine; first compound 0.02 µM) was 0.287 and the relative viability (Imatinib + Decitabine; first compound 0.2 µM) was 0.355. It also gave a relative viability (Imatinib + Decitabine; first compound 0.6325 µM) of 0.32, a relative viability (Imatinib + Decitabine; first compound 2 µM) of 0.222 and a relative viability (Imatinib + Olaparib; first compound 0.02 µM) of 0.472. The relative viability (Imatinib + Olaparib; first compound 0.2 µM) was 0.299, the relative viability (Imatinib + Olaparib; first compound 0.6325 µM) was 0.307 and the relative viability (Imatinib + Olaparib; first compound 2 µM) was 0.42. The relative viability (Imatinib + Phenformin; first compound 0.02 µM) was 0.178, the relative viability (Imatinib + Phenformin; first compound 0.2 µM) was 0.154 and the relative viability (Imatinib + Phenformin; first compound 0.6325 µM) was 0.159. For the same cell line, the relative viability (Imatinib + Phenformin; first compound 2 µM) was 0.135.
